Assay results: patent publication US11311522B1 (Cavion, Inc., priority 2018, dated 2022)

Test: PN001/Part I: safety and tolerability
Assay type: in vivo, human
Source text: Safety was monitored throughout by adverse events, vital signs, and repeated clinical and laboratory evaluations. […] All adverse events were mild or moderate and severity and transient.

CC(C)c1ccc(CC(=O)N[C@H](C)c2ccc(OCC(F)(F)F)cn2)cc1 [CX-8998]
Abnormal physical sensation (1 mg): 0 n (%)
At least 1 adverse event (1 mg): 2 (33.3) n (%)
Dizziness (1 mg): 0 n (%)
Drowsiness (1 mg): 0 n (%)
Elevated mood (1 mg): 0 n (%)
Euphoric mood (1 mg): 0 n (%)
Eye Disorders (1 mg): 0 n (%)
Fatigue (1 mg): 0 n (%)
Feeling abnormal (1 mg): 0 n (%)
Floating feeling (1 mg): 0 n (%)
Gastro-intestinal Disorders (1 mg): 0 n (%)
Hangover effect (1 mg): 0 n (%)
Headache (1 mg): 2 (33.3) n (%)
Indifference (1 mg): 0 n (%)
Injury, Poisoning and Procedural Complications (1 mg): 0 n (%)
Insomnia (1 mg): 0 n (%)
Intoxication (1 mg): 0 n (%)
Irritability (1 mg): 0 n (%)
Lethargy (1 mg): 0 n (%)
Nervous System Disorders (1 mg): 2 (33.3) n (%)
Paraesthesia (1 mg): 0 n (%)
Paraesthesia oral (1 mg): 0 n (%)
Paraesthesia tongue (1 mg): 0 n (%)
Psychiatric Disorders (1 mg): 0 n (%)
Racing thoughts (1 mg): 0 n (%)
Relaxed (1 mg): 0 n (%)
Sensory disturbance (1 mg): 0 n (%)
Vision blurred (1 mg): 0 n (%)
Visual disturbance (1 mg): 0 n (%)
Vivid dreams (1 mg): 0 n (%)
Abnormal physical sensation (1 mg fed): 0 n (%)
At least 1 adverse event (1 mg fed): 0 n (%)
Dizziness (1 mg fed): 0 n (%)
Drowsiness (1 mg fed): 0 n (%)
Elevated mood (1 mg fed): 0 n (%)
Euphoric mood (1 mg fed): 0 n (%)
Eye Disorders (1 mg fed): 0 n (%)
Fatigue (1 mg fed): 0 n (%)
Feeling abnormal (1 mg fed): 0 n (%)
Floating feeling (1 mg fed): 0 n (%)
Gastro-intestinal Disorders (1 mg fed): 0 n (%)
Hangover effect (1 mg fed): 0 n (%)
Headache (1 mg fed): 0 n (%)
Indifference (1 mg fed): 0 n (%)
Injury, Poisoning and Procedural Complications (1 mg fed): 0 n (%)
Insomnia (1 mg fed): 0 n (%)
Intoxication (1 mg fed): 0 n (%)
Irritability (1 mg fed): 0 n (%)
Lethargy (1 mg fed): 0 n (%)
Nervous System Disorders (1 mg fed): 0 n (%)
Paraesthesia (1 mg fed): 0 n (%)
Paraesthesia oral (1 mg fed): 0 n (%)
Paraesthesia tongue (1 mg fed): 0 n (%)
Psychiatric Disorders (1 mg fed): 0 n (%)
Racing thoughts (1 mg fed): 0 n (%)
Relaxed (1 mg fed): 0 n (%)
Sensory disturbance (1 mg fed): 0 n (%)
Vision blurred (1 mg fed): 0 n (%)
Visual disturbance (1 mg fed): 0 n (%)
Vivid dreams (1 mg fed): 0 n (%)
Abnormal physical sensation (3 mg): 0 n (%)
At least 1 adverse event (3 mg): 3 (50.0) n (%)
Dizziness (3 mg): 0 n (%)
Drowsiness (3 mg): 0 n (%)
Elevated mood (3 mg): 0 n (%)
Euphoric mood (3 mg): 1 (16.7) n (%)
Eye Disorders (3 mg): 0 n (%)
Fatigue (3 mg): 0 n (%)
Feeling abnormal (3 mg): 0 n (%)
Floating feeling (3 mg): 0 n (%)
Gastro-intestinal Disorders (3 mg): 0 n (%)
Hangover effect (3 mg): 0 n (%)
Headache (3 mg): 0 n (%)
Indifference (3 mg): 0 n (%)
Injury, Poisoning and Procedural Complications (3 mg): 0 n (%)
Insomnia (3 mg): 0 n (%)
Intoxication (3 mg): 0 n (%)
Irritability (3 mg): 0 n (%)
Lethargy (3 mg): 0 n (%)
Nervous System Disorders (3 mg): 0 n (%)
Paraesthesia (3 mg): 0 n (%)
Paraesthesia oral (3 mg): 0 n (%)
Paraesthesia tongue (3 mg): 0 n (%)
Psychiatric Disorders (3 mg): 1 (16.7) n (%)
Racing thoughts (3 mg): 0 n (%)
Relaxed (3 mg): 0 n (%)
Sensory disturbance (3 mg): 0 n (%)
Vision blurred (3 mg): 0 n (%)
Visual disturbance (3 mg): 0 n (%)
Vivid dreams (3 mg): 0 n (%)
Abnormal physical sensation (4 mg): 0 n (%)
At least 1 adverse event (4 mg): 1 (16.7) n (%)
Dizziness (4 mg): 0 n (%)
Drowsiness (4 mg): 0 n (%)
Elevated mood (4 mg): 0 n (%)
Euphoric mood (4 mg): 0 n (%)
Eye Disorders (4 mg): 1 (16.7) n (%)
Fatigue (4 mg): 0 n (%)
Feeling abnormal (4 mg): 1 (16.7) n (%)
Floating feeling (4 mg): 0 n (%)
Gastro-intestinal Disorders (4 mg): 0 n (%)
Hangover effect (4 mg): 0 n (%)
Headache (4 mg): 0 n (%)
Indifference (4 mg): 0 n (%)
Injury, Poisoning and Procedural Complications (4 mg): 0 n (%)
Insomnia (4 mg): 0 n (%)
Intoxication (4 mg): 0 n (%)
Irritability (4 mg): 0 n (%)
Lethargy (4 mg): 0 n (%)
Nervous System Disorders (4 mg): 0 n (%)
Paraesthesia (4 mg): 0 n (%)
Paraesthesia oral (4 mg): 0 n (%)
Paraesthesia tongue (4 mg): 0 n (%)
Psychiatric Disorders (4 mg): 0 n (%)
Racing thoughts (4 mg): 0 n (%)
Relaxed (4 mg): 0 n (%)
Sensory disturbance (4 mg): 0 n (%)
Vision blurred (4 mg): 0 n (%)
Visual disturbance (4 mg): 1 (16.7) n (%)
Vivid dreams (4 mg): 0 n (%)
Abnormal physical sensation (8 mg): 0 n (%)
At least 1 adverse event (8 mg): 1 (16.7) n (%)
Dizziness (8 mg): 0 n (%)
Drowsiness (8 mg): 0 n (%)
Elevated mood (8 mg): 0 n (%)
Euphoric mood (8 mg): 0 n (%)
Eye Disorders (8 mg): 1 (16.7) n (%)
Fatigue (8 mg): 0 n (%)
Feeling abnormal (8 mg): 0 n (%)
Floating feeling (8 mg): 0 n (%)
Gastro-intestinal Disorders (8 mg): 1 (16.7) n (%)
Hangover effect (8 mg): 0 n (%)
Headache (8 mg): 0 n (%)
Indifference (8 mg): 0 n (%)
Injury, Poisoning and Procedural Complications (8 mg): 0 n (%)
Insomnia (8 mg): 0 n (%)
Intoxication (8 mg): 0 n (%)
Irritability (8 mg): 0 n (%)
Lethargy (8 mg): 0 n (%)
Nervous System Disorders (8 mg): 1 (16.7) n (%)
Paraesthesia (8 mg): 0 n (%)
Paraesthesia oral (8 mg): 1 (16.7) n (%)
Paraesthesia tongue (8 mg): 0 n (%)
Psychiatric Disorders (8 mg): 0 n (%)
Racing thoughts (8 mg): 0 n (%)
Relaxed (8 mg): 0 n (%)
Sensory disturbance (8 mg): 0 n (%)
Vision blurred (8 mg): 0 n (%)
Visual disturbance (8 mg): 1 (16.7) n (%)
Vivid dreams (8 mg): 0 n (%)
Abnormal physical sensation (8 mg evening): 1 (16.7) n (%)
At least 1 adverse event (8 mg evening): 5 (83.3) n (%)
Dizziness (8 mg evening): 0 n (%)
Drowsiness (8 mg evening): 1 (16.7) n (%)
Elevated mood (8 mg evening): 2 n (%)
Euphoric mood (8 mg evening): 2 n (%)
Eye Disorders (8 mg evening): 1 (16.7) n (%)
Fatigue (8 mg evening): 0 n (%)
Feeling abnormal (8 mg evening): 1 (16.7) n (%)
Floating feeling (8 mg evening): 0 n (%)
Gastro-intestinal Disorders (8 mg evening): 0 n (%)
Hangover effect (8 mg evening): 0 n (%)
Headache (8 mg evening): 1 (16.7) n (%)
Indifference (8 mg evening): 0 n (%)
Injury, Poisoning and Procedural Complications (8 mg evening): 0 n (%)
Insomnia (8 mg evening): 0 n (%)
Intoxication (8 mg evening): 0 n (%)
Irritability (8 mg evening): 0 n (%)
Lethargy (8 mg evening): 0 n (%)
Nervous System Disorders (8 mg evening): 3 (50.0) n (%)
Paraesthesia (8 mg evening): 1 (16.7) n (%)
Paraesthesia oral (8 mg evening): 0 n (%)
Paraesthesia tongue (8 mg evening): 0 n (%)
Psychiatric Disorders (8 mg evening): 4 n (%)
Racing thoughts (8 mg evening): 1 (16.7) n (%)
Relaxed (8 mg evening): 0 n (%)
Sensory disturbance (8 mg evening): 0 n (%)
Vision blurred (8 mg evening): 1 (16.7) n (%)
Visual disturbance (8 mg evening): 0 n (%)
Vivid dreams (8 mg evening): 1 (16.7) n (%)
